Reference: PMC6934184, “Selective DNA-PKcs inhibition extends the therapeutic index of localized radiotherapy and chemotherapy” (The Journal of Clinical Investigation, 2019)

System: PI3K
Test: IGF-1-stimulated phospho-AKT Ser473 in MCF7 cells, Western blot
Format: cell-based, Human
Settings: up to 10 μM, 50 ng/mL IGF-1, 30 min
Method: Exponentially growing MCF7 cells were exposed to a range of concentrations of NU5455 and NU7441 (0.03–10 μM) for 1 hour. To assess the ability of NU5455 and NU7441 to inhibit autophosphorylation of DNA-PKcs at Ser2056, cells were treated with 10 Gy irradiation and incubated for 30 minutes. Alternatively, to investigate the effects of NU5455 and NU7441 against PI3K-dependent phosphorylation of AKT at Ser473, cells were treated with 50 ng/mL insulin-like growth factor-1 (IGF-1; Invitrogen) for 30 minutes. Cell lysates were prepared for the detection of p–DNA-PKcs Ser2056 and total DNA-PKcs, or p–AKT Ser473 and total AKT, respectively, using Western blotting. […]
Protein lysates were quantified using the Pierce BCA Protein Assay (ThermoFisher). […]
Membranes were then washed in TBST and incubated with HRP-conjugated goat anti-mouse or anti-rabbit antibodies (P0447 and P0448 respectively, Dako) in 5% (w/v) milk/TBST at room temperature for 1-2 hours. Conjugates were detected using Clarity Western ECL Substrate (BioRad) and chemiluminescence imaged using the Fuji LAS-3000 Luminescent Image Analyzer System (Fujifilm). […]
Alternatively, basal pAKT Ser473 levels were subtracted from all other pAKT bands, and pAKT band intensity calculated relative to total AKT expression and given as a percentage relative to IGF-1 stimulated, DMSO-treated cells. […]

CN(C(=O)CN1CCOCC1)c1ccc2sc3c(-c4cccc5c(=O)cc(N6CC7CCC(C6)O7)oc45)cccc3c2c1 [NU5455]
inhibition of IGF-stimulated activation of AKT: did not inhibit
